Test results taken from patent publication US20200261440A1, “ZINC IONOPHORES AND USES THEREOF” (THE UNIVERSITY OF QUEENSLAND, priority 2017, published 2020).
In brackets after ≈: the same amount, converted by molar mass. Where two headings read alike, the source gives them in different places.

What was measured:
Assay in all cases: MIC by broth microdilution (CLSI)
[1] = test system: Klebsiella pneumoniae strain MS6771; assay type: cell-based; details: Klebsiella pneumoniae, read-out: MIC
[2] = test system: Vancomycin-resistant Enterococci (VRE) clinical isolate RBWH1; assay type: cell-based, Enterococcus; details: Enterococcus, VRE, read-out: MIC
Experimental: J. Path. Bact. […] Proc. Soc.
MIC assays were carried out in biological triplicates.
M100 Performance Standards for Antimicrobial Susceptibility Testing, 27th Edition.

[3] = test system: Methicillin-resistant Staphylococcus aureus (MRSA) strain USA300; details: for MIC: Staphylococcus aureus
Experimental: GAS HKU16, MRSA USA300, VRE RBWH1, Klebsiella pneumoniae strain MS6771, E. coli strain MS8345 and Streptococcus pneumoniae strain 23F were grown in Todd-Hewitt broth (THB) or agar with 1% yeast extract (THY) [Todd, E. W. & Hewitt, L. F. A new culture medium for the production of antigenic streptococcal haemolysin. […] Bacteria were routinely grown at 37° C. in ambient air.
MICs were determined by broth microdilution in accordance to CLSI guidelines (“Methods for Dilution Antimicrobial Susceptibility Tests for Bacteria That Grow Aerobically”, Clinical and Laboratory Standards Institute) [Clinical and Laboratory Standards Institute. […] For MRSA, VRE, Klebsiella pneumoniae and E. coli the assays were performed in MHB, and for GAS and Streptococcus pneumoniae MHB+2.5% lysed horse blood (LHB) was used. The bacterial inoculum was prepared by direct colony suspension aiming for 2-8×10^5 colony forming units (CFU)/mL bacteria per well. Antibiotics/compounds were serially diluted two-fold across the 96-well plate, the last column contained no antibiotics/compounds. The inoculum was added to the plate containing antibiotic/compound and incubated for 16-24 h at 35+/−2° C. […] MIC assays were carried out in biological triplicates.
Using Clinical and Laboratory Standards Institute guidelines for antimicrobial sensitivity testing [Clinical and Laboratory Standards Institute.

[4] = test system: Streptococcus pneumoniae 23F; assay type: cell-based; details: Streptococcus pneumoniae, 23F, read-out: MIC

MIC ([1]; MS6771, K. pneumoniae, RA-HQ-12: 0 μM, Zn: 0 μM): > 128 mg/L
MIC ([1]; MS6771, K. pneumoniae, RA-HQ-12: 16 μM, Zn: 64 μM): > 128 mg/L
MIC ([1]; MS6771, K. pneumoniae, RA-HQ-12: 16 μM): > 128 mg/L
MIC ([1]; MS6771, K. pneumoniae, Zn: 64 μM): > 128 mg/L
MIC ([1]; MS6771, Klebsiella pneumoniae, CQ: 0 μM, Zinc: 0 μM): > 128 mg/L
MIC ([1]; MS6771, Klebsiella pneumoniae, CQ: 64 μM, Zinc: 256 μM): > 128 mg/L
MIC ([1]; MS6771, Klebsiella pneumoniae, CQ: 64 μM): > 128 mg/L
MIC ([1]; MS6771, Klebsiella pneumoniae, PBT2: 0 μM, Zinc: 0 μM): > 128 mg/L
MIC ([1]; MS6771, Klebsiella pneumoniae, PBT2: 64 μM, Zinc: 256 μM): > 128 mg/L
MIC ([1]; MS6771, Klebsiella pneumoniae, PBT2: 64 μM): > 128 mg/L
MIC ([1]; MS6771, Klebsiella pneumoniae, Zinc: 256 μM (CQ panel)): > 128 mg/L
MIC ([1]; MS6771, Klebsiella pneumoniae, Zinc: 256 μM (PBT2 panel)): > 128 mg/L
MIC ([2]; RA-HQ-12: 3.5 μM, Zn: […]): > 128 mg/L
MIC ([2]; RA-HQ-12: 3.5 μM): > 128 mg/L
MIC ([2]; Zn: […] (RA-HQ-12 panel)): > 128 mg/L
MIC ([2]; RA-HQ-12: 0 μM, Zn: 0 μM): > 128 mg/L
MIC ([3]; MRSA USA300, CQ: 0 μM, Zinc: 0 μM): > 128 mg/L
MIC ([3]; MRSA USA300, CQ: 1 μM): > 128 mg/L
MIC ([3]; MRSA USA300, CQ: 1 μM, Zinc: 32 μM): 1 mg/L (≈ 2.86 µM)
MIC ([3]; MRSA USA300, PBT2: 0 μM, Zinc: 0 μM): > 128 mg/L
MIC ([3]; MRSA USA300, PBT2: 2 μM): > 128 mg/L
MIC ([3]; MRSA USA300, PBT2: 2 μM, Zinc: 50 μM): 2 mg/L (≈ 5.72 µM)
MIC ([3]; MRSA USA300, Zinc: 32 μM): > 128 mg/L
MIC ([3]; MRSA USA300, Zinc: 50 μM): > 128 mg/L
MIC ([3]; MRSA|USA300, MRSA, RA-HQ-12: 0 μM, Zn: 0 μM, oxacillin with 2% NaCl): > 128 mg/L
MIC ([3]; MRSA|USA300, MRSA, RA-HQ-12: 3.5 μM, Zn: […], oxacillin with 2% NaCl): > 128 mg/L
MIC ([3]; MRSA|USA300, MRSA, RA-HQ-12: 3.5 μM, oxacillin with 2% NaCl): > 128 mg/L
MIC ([4]; PBT2: 0 μM, Zinc: 0 μM): 8 mg/L (≈ 22.9 µM)
MIC ([4]; PBT2: 8 μM, Zinc: 32 μM): 1 mg/L (≈ 2.86 µM)
MIC ([4]; PBT2: 8 μM): 8 mg/L (≈ 22.9 µM)
MIC ([4]; Zinc: 32 μM): 8 mg/L (≈ 22.9 µM)
SMILES: CC1(C)S[C@@H]2[C@H](NC(=O)[C@H](N)c3ccccc3)C(=O)N2[C@H]1C(=O)O [Ampicillin, ampicillin]
antibiotic sensitivity of resistant strain ([3]; MRSA USA300, addition of sub-inhibitory PBT2+zinc(II) ions): became sensitive
